Assays:
Assay type in all cases: functional, cell-based
[1] = tested on: L1210; assay: In vitro inhibition of L1210 leukemia cell replication by the compound; settings: Mus musculus
[2] = tested on: P388; assay: In vitro inhibition of P388 leukemia cell replication by the compound; settings: Mus musculus
[3] = tested on: B16-F10; assay: In vitro inhibition of B16F10 melanoma cell replication by the compound; settings: Mus musculus
[4] = tested on: CCRF-CEM; assay: In vitro inhibition of CCRF-CEM lymphoblastic leukemia cell replication by the compound; settings: Homo sapiens
[5] = tested on: L1210; assay: In vitro inhibition of L1210 leukemia cell replication by the compound at; settings: Mus musculus

IC50 [1] | IC50 [2] | IC50 [3] | IC50 [4] | IC50 [5] | SMILES
50 µM | 10 µM | 100 µM | 30 µM | – | CC1(CO)OCC(n2ccc(N)nc2=O)O1 (configuration not stated)
> 100 µM | > 100 µM | 100 µM | > 100 µM | – | C[C@]1(CO)OCC(n2ccc(N)nc2=O)O1 (some centres not stated)
> 100 µM | > 100 µM | > 100 µM | > 100 µM | – | C[C@]1(CO)OCC(n2cc(F)c(N)nc2=O)O1 (some centres not stated)
> 100 µM | > 100 µM | > 100 µM | > 100 µM | – | CC1(CO)OC[C@@H](n2cc(F)c(N)nc2=O)O1 (some centres not stated)
> 100 µM | > 100 µM | > 100 µM | > 100 µM | – | CC1(CO)OC[C@@H](n2ccc(N)nc2=O)O1 (some centres not stated)
– | > 100 µM | > 100 µM | > 100 µM | > 100 µM | CC1(CO)OCC(n2cc(F)c(N)nc2=O)O1 (configuration not stated)
> 100 µM | 50 µM | > 100 µM | > 100 µM | – | C[C@]1(CO)OCC(n2cc(F)c(N)nc2=O)O1 (single isomer, unassigned)
45 µM | 5 µM | 100 µM | 30 µM | – | C[C@]1(CO)OCC(n2ccc(N)nc2=O)O1 (single isomer, unassigned)

Source: ChEMBL document CHEMBL1133932, “Synthesis and biological evaluation of L- and D-configurations of 2',3'-dideoxy-4'-C-methyl-3'-oxacytidine analogues” (Bioorg Med Chem Lett, 2001)
